Test results reported in patent publication US20230321103A1, “COMPOUND FOR INHIBITING MUTANT EGFR AND USE THEREOF” (East China University of Science and Technology, priority 2020, published 2023).
pIC50: −log10 of the molar value.

How the values were obtained:
EGFR = target: T1, EGFR (Homo sapiens, UniProt P00533); assay: Kinase spectrum evaluation, radiometric 33P-ATP kinase assay; assay type: biochemical; conditions: room temperature 2 h, 10 concentration gradients
T1 construct: purchased Reaction Biology Corporation (commissioned test)
Method: (§15) The substrate for the kinase reaction was placed in a freshly prepared reaction buffer and the co-factors required for the kinase reaction were added, and the buffer was prepared as: 20 mM HEPES (pH 7.5), 10 mM MgCl2, 1 mM EGTA, 0.02% Brij35, 0.02 mg/mL BSA, 0.1 mM Na3VO4, 2 mM DTT, 1% DMSO; afterwards, the kinase to be tested was added and gently shaken. The compound to be tested was dissolved in DMSO to the desired concentration and added to the above buffer containing the kinase/substrate using an autosampler Echo550. 33P-labeled ATP (33P-ATP at a final concentration of 0.01 μCi/μL) was added to the reaction system to initiate the kinase reaction at room temperature for 2 h. […] Kinase activity data were expressed as a percentage of the remaining kinase activity in the test sample, 10 concentration gradients were measured, a curve was fitted and IC50 values were calculated using Prism4 (GraphPad software).

EGFR (A763_Y764insFHEA) = target: T2, EGFR (A763_Y764insFHEA) (Homo sapiens, UniProt P00533, INS763FHEA); assay: as above; assay type: biochemical; conditions: room temperature 2 h, 10 concentration gradients
T2 construct: purchased Reaction Biology Corporation (commissioned test)
T2 sequence (P00533 with tags, fused parts or gaps INS763FHEA limits assumed): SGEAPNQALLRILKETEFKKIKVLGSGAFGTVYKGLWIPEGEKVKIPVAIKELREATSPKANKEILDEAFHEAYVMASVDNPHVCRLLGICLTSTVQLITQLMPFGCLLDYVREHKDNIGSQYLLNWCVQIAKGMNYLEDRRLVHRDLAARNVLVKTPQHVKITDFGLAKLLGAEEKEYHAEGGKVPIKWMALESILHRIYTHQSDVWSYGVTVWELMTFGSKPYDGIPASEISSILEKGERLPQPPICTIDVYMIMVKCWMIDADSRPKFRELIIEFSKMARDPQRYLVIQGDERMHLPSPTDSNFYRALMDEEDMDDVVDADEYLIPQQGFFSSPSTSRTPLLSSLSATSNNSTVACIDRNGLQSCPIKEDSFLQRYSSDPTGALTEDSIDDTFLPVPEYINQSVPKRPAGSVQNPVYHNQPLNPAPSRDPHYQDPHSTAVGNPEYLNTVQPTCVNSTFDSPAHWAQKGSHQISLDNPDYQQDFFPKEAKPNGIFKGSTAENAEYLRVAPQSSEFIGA
Method: as §15

EGFR (A763_Y764insFQEA) = target: T3, EGFR (A763_Y764insFQEA) (Homo sapiens, UniProt P00533, INS763FQEA); assay: as above; assay type: biochemical; conditions: room temperature 2 h, 10 concentration gradients
T3 construct: purchased Reaction Biology Corporation (commissioned test)
Method: as §15

EGFR (d746-750) = target: T4, EGFR (d746-750) (Homo sapiens, UniProt P00533, DEL746-750); assay: as above; assay type: biochemical; conditions: room temperature 2 h, 10 concentration gradients
T4 construct: purchased Reaction Biology Corporation (commissioned test)
Method: as §15

EGFR (d747-749/A750P) = target: T5, EGFR (d747-749/A750P) (Homo sapiens, UniProt P00533, A750P/DEL747-749); assay: as above; assay type: biochemical; conditions: room temperature 2 h, 10 concentration gradients
T5 construct: purchased Reaction Biology Corporation (commissioned test)
Method: as §15

EGFR (D770_N771insNPG) = target: T6, EGFR (D770_N771insNPG) (Homo sapiens, UniProt P00533, INS770NPG); assay: as above; assay type: biochemical; conditions: room temperature 2 h, 10 concentration gradients
T6 construct: purchased Reaction Biology Corporation (commissioned test)
T6 sequence (P00533 with tags, fused parts or gaps INS770NPG limits assumed): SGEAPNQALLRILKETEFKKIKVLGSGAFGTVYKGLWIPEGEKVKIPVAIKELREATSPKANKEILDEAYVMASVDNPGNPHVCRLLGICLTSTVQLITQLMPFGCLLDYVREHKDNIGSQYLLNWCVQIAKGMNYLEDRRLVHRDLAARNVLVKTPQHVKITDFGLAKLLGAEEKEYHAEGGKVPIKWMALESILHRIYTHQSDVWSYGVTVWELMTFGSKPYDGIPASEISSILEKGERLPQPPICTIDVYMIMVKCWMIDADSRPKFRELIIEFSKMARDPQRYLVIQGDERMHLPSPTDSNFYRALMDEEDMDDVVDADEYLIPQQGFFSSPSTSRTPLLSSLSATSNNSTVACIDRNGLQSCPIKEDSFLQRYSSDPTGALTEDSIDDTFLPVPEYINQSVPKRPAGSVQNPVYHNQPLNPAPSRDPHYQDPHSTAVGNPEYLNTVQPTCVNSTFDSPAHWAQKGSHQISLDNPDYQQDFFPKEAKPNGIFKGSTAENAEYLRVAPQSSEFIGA
Method: as §15

[1] = target: T7, EGFR (D770_N771insNPG/T790M) (Homo sapiens, UniProt P00533, INS770NPG/T790M); assay: as above; assay type: biochemical; conditions: room temperature 2 h, 10 concentration gradients
T7 construct: purchased Reaction Biology Corporation (commissioned test)
T7 sequence (P00533 with tags, fused parts or gaps INS770NPG/T790M limits assumed): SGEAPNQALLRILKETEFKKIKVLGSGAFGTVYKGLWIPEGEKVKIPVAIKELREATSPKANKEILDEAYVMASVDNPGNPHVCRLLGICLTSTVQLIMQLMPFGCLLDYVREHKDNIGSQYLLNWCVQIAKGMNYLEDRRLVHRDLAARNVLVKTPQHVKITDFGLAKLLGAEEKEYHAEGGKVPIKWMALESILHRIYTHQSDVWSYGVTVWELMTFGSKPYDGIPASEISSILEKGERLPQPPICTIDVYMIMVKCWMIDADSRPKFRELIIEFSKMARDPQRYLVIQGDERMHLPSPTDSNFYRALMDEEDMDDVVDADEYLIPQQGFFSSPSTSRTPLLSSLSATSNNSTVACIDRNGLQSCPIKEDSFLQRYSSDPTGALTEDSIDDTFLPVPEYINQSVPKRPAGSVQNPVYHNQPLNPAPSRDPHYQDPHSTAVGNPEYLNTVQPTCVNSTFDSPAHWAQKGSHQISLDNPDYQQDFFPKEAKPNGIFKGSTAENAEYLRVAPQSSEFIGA
Method: as §15

EGFR (G719C) = target: T8, EGFR (G719C) (Homo sapiens, UniProt P00533, G719C); assay: as above; assay type: biochemical; conditions: room temperature 2 h, 10 concentration gradients
T8 construct: purchased Reaction Biology Corporation (commissioned test)
Method: as §15

EGFR (G719S) = target: T9, EGFR (G719S) (Homo sapiens, UniProt P00533, G719S); assay: as above; assay type: biochemical; conditions: room temperature 2 h, 10 concentration gradients
T9 construct: purchased Reaction Biology Corporation (commissioned test)
T9 sequence (P00533 25-1210 G719S): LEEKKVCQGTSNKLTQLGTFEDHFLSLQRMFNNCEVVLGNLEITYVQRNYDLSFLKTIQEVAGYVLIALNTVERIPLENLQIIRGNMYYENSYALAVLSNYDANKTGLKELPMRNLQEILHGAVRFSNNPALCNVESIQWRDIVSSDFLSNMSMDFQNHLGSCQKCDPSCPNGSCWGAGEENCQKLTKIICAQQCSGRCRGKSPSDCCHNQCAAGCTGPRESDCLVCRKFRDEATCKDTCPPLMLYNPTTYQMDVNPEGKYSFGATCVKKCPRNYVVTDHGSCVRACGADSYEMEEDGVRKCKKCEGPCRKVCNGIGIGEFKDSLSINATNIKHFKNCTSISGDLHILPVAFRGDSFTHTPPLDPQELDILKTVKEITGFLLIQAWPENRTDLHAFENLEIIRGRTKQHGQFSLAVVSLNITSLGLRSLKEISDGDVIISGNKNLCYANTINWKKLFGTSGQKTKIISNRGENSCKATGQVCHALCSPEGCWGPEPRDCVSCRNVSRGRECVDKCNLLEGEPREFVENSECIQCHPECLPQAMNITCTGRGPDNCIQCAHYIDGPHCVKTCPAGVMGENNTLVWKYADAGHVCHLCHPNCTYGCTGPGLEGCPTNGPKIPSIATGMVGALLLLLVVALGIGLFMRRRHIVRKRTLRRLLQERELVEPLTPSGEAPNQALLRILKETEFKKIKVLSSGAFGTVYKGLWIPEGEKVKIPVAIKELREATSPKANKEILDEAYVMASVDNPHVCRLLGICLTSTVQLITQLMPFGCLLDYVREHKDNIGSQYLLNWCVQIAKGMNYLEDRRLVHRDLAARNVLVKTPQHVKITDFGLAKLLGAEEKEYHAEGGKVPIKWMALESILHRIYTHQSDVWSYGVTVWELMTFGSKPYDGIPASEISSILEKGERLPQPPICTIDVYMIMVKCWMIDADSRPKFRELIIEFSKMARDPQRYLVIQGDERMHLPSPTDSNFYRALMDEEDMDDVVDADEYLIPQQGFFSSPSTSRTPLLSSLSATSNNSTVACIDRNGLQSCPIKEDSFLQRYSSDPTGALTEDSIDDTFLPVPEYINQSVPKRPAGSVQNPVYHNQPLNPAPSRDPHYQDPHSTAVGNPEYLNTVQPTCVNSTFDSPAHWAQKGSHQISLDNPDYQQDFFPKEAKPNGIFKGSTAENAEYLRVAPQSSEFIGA
Method: as §15

EGFR (L858R) = target: T10, EGFR (L858R) (Homo sapiens, UniProt P00533, L858R); assay: as above; assay type: biochemical; conditions: room temperature 2 h, 10 concentration gradients
T10 construct: purchased Reaction Biology Corporation (commissioned test)
Method: as §15

ERBB2 (D769Y) = target: T11, ERBB2 (D769Y) (Homo sapiens, UniProt P04626, D769Y); assay: as above; assay type: biochemical; conditions: room temperature 2 h, 10 concentration gradients
T11 construct: purchased Reaction Biology Corporation (commissioned test)
T11 sequence (P04626 23-1255 D769Y): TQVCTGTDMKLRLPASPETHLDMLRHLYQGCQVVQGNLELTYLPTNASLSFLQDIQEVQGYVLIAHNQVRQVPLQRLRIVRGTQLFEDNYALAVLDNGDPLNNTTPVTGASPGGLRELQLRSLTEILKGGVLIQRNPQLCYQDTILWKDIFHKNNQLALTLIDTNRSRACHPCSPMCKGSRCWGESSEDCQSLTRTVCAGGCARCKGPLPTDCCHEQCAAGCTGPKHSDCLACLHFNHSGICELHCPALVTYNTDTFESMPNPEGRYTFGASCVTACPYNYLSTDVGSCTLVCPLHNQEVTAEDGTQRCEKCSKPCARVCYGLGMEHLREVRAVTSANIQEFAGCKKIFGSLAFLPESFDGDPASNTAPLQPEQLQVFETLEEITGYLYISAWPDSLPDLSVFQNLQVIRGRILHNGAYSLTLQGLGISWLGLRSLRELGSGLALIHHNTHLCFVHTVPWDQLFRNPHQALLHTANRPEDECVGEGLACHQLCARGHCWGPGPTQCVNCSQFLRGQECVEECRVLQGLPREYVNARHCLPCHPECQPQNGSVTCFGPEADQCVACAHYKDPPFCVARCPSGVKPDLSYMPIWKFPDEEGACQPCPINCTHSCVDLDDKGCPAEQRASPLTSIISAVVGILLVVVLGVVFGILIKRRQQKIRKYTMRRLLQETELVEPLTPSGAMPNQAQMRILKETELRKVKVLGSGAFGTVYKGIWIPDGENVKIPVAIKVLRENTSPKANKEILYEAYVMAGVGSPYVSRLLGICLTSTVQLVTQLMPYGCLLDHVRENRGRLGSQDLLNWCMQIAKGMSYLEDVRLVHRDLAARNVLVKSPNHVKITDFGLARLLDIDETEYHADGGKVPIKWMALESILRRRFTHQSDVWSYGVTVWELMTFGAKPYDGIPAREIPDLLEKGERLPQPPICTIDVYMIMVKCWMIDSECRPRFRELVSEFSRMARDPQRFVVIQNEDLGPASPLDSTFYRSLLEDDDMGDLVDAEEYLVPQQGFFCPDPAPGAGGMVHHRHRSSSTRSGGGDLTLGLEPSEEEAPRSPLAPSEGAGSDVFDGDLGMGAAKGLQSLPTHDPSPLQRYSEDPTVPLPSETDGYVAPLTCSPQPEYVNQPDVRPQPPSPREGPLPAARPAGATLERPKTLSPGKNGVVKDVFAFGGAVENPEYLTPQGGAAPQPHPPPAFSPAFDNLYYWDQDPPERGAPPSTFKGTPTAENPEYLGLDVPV
Method: as §15

ERBB2 (V777_G778insCG) = target: T12, ERBB2 (V777_G778insCG) (Homo sapiens, UniProt P04626, INS777CG); assay: as above; assay type: biochemical; conditions: room temperature 2 h, 10 concentration gradients
T12 construct: purchased Reaction Biology Corporation (commissioned test)
T12 sequence (P04626 with tags, fused parts or gaps INS777CG limits assumed): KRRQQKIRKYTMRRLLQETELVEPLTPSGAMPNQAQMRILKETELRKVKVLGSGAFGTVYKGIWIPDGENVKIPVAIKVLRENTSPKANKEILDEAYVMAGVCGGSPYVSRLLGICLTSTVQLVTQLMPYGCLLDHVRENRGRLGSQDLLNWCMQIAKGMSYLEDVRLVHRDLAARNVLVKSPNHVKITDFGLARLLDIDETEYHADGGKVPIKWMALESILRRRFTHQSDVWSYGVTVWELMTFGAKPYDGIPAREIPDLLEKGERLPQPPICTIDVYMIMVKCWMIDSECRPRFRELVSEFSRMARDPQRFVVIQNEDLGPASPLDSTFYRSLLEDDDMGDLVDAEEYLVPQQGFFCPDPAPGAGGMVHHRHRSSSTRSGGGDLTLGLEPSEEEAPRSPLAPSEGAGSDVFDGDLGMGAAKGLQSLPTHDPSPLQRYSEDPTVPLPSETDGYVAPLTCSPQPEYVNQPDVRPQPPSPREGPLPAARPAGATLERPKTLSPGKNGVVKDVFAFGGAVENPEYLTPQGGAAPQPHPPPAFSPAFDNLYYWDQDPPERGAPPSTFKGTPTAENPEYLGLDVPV
Method: as §15

ERBB2 (V777L) = target: T13, ERBB2 (V777L) (Homo sapiens, UniProt P04626, V777L); assay: as above; assay type: biochemical; conditions: room temperature 2 h, 10 concentration gradients
T13 construct: purchased Reaction Biology Corporation (commissioned test)
Method: as §15

[2] = test system: EGFR D770_N771insNPG BaF3; assay: Proliferation inhibition assay on stable cell lines (CTG Assay); assay type: cell-based; conditions: Mus musculus, 72 hours, CellTiter-Glo
Text: (§1) Ba/F3, a mouse pro-B cell line dependent on interleukin-3, is a common system for studying kinases and kinase inhibitors. Recombinant expression of some protein kinases can make Ba/F3 cells no longer dependent on IL-3 for growth, and based on such properties, the inhibition of a compound on the proliferation of Ba/F3 cells expressing different target kinases can be detected, so as to reflect inhibitory effects of the compound on different kinase targets at the cellular level for kinase inhibitor screening.
(§2) CellTiter-Glo® Luminescent Cell Viability Assay was employed in this experiment to detect cell proliferation, and the specific principles are as follows:
(§3) Adenosine Tri-Phosphate (ATP) is a common energy carrier used in various life activities in nature and is the smallest unit of energy storage and transfer. In the CellTiter-Glo™ Live Cell Assay Kit, […] are used as detectors, which require the participation of ATP to generate light signals. After the CellTiter-Glo™ reagent is added to the cells, the luminescence value is measured. The light signal is proportional to the amount of ATP in the system, which is in turn positively correlated with the number of living cells. Therefore, by measuring the ATP content using the CellTiter-Glo kit, the viability of the cells and thus the level of cell proliferation can be reflected.
(§4) Cells were removed from the liquid nitrogen, quickly thawed in a water bath at 37 degree Celsius, lyophilization tubes were centrifuged at 1000 rpm, the supernatant of the lyophilized solution was discarded, and the cells were resuspended in RPMI1640+10% FBS medium and incubated in a cell culture incubator at 37 degree Celsius with a cell culture density maintaining at 2*10e5 to 2*10e6/ml at all times.
(§5) 1) The compound were serially diluted in DMSO in a compound formulation plate with a starting concentration of 1 or 10 mM and a gradient dilution of 3.
(§6) 2) A new compound formulation plate was prepared, 198 ul of RPMI160+10% FBS medium was added to each well, 2 ul/well of compound from the previous gradient-diluted compound formulation plate was transferred to this plate and mixed well, so that the highest starting compound concentration in this plate was […], and diluted by gradient (this plate was a 10* compound concentration dilution plate).
(§7) 1) Cells in logarithmic growth phase were taken, the supernatant was discarded by centrifugation, and the cells were re-suspended in a fresh RPMI1640 medium at a cell density of 2*10e4/ml.
(§8) 2) The re-suspended cells were inoculated into 2 96-well cell culture plates with white walls and clear bottom at 100 ul of cell suspension/well, and incubated overnight in a 37° C. cell incubator.
(§9) 3) The next day, one of the 96-well plates inoculated with cells were taken, 100 µl/well of cell titer glo assay reagent was added for 60 minutes, the value was read and defined as G0 data.
(§10) 4) Another parallel plate was taken, 11.1 ul/well of compound from the previously diluted 10* compound concentration dilution plate was added to this plate, so that the final concentration of compound in the cell assay plate started from 0.5 or 1 uM, which was 3-fold diluted for 9 concentration gradients. Additional DMSO control wells were set, and incubated in a 37° C. cell incubator for another 72 hours.
(§11) 5) The 96-well plate, in which cells were treated by the compound for 72 hrs, were taken from the incubator, 100 ul/well of cell titer glo assay reagent was added for 60 minutes, the value was read and defined as G3 data.
(§12) 6) The cell proliferation rate corresponding to each well was calculated according to the following formula
(§13) % prolifation=(G3 of the well of the compound to be tested−mean value of G)/(mean value of G3 of the DMSO control well−mean value of G0)*100.
(§14) Y=Bottom+(Top−Bottom)/(1+10^((Log IC50−X)*HillSlope))

[3] = test system: EGFR D770_N771insSVD BaF3; assay: as above; assay type: cell-based; conditions: Mus musculus, 72 hours, CellTiter-Glo
Text: as §1, §2, §3, §4, §5, §6, §7, §8, §9, §10, §11, §12, §13, §14

EGFR G719A BaF3 = assay: as above; assay type: cell-based; conditions: Mus musculus, 72 hours, CellTiter-Glo
Text: as §1, §2, §3, §4, §5, §6, §7, §8, §9, §10, §11, §12, §13, §14

EGFR H773_V774insH BaF3 = assay: as above; assay type: cell-based; conditions: Mus musculus, 72 hours, CellTiter-Glo
Text: as §1, §2, §3, §4, §5, §6, §7, §8, §9, §10, §11, §12, §13, §14

EGFR L861Q BaF3 = assay: as above; assay type: cell-based; conditions: Mus musculus, 72 hours, CellTiter-Glo
Text: as §1, §2, §3, §4, §5, §6, §7, §8, §9, §10, §11, §12, §13, §14

[4] = test system: EGFR V769_D770insASV BaF3; assay: as above; assay type: cell-based; conditions: Mus musculus, 72 hours, CellTiter-Glo
Text: as §1, §2, §3, §4, §5, §6, §7, §8, §9, §10, §11, §12, §13, §14

EGFR (D761Y) = target: T14, EGFR (D761Y) (Homo sapiens, UniProt P00533, D761Y); assay: Kinase spectrum evaluation, radiometric 33P-ATP kinase assay; assay type: biochemical; conditions: room temperature 2 h, 10 concentration gradients
T14 construct: purchased Reaction Biology Corporation (commissioned test)
Method: as §15

EGFR (D770GY) = target: T15, EGFR (D770GY) (Homo sapiens, UniProt P00533, D770Y/INS769G); assay: as above; assay type: biochemical; conditions: room temperature 2 h, 10 concentration gradients
T15 construct: purchased Reaction Biology Corporation (commissioned test)
T15 sequence (P00533 with tags, fused parts or gaps INS769G/D770Y limits assumed): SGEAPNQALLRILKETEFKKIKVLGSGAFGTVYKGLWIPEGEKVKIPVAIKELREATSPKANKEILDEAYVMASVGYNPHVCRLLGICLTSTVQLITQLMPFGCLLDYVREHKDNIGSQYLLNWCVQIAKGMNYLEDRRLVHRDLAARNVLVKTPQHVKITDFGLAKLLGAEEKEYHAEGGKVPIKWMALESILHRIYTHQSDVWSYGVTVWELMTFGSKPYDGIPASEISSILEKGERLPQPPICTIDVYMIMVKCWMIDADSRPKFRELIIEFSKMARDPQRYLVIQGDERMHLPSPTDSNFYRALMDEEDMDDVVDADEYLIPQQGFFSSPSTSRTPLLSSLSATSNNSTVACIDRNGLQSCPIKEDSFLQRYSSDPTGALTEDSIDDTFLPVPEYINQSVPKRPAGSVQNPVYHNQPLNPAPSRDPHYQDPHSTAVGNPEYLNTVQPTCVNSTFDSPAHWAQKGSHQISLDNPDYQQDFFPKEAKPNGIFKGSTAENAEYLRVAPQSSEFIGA
Method: as §15

EGFR (G719D) = target: T16, EGFR (G719D) (Homo sapiens, UniProt P00533, G719D); assay: as above; assay type: biochemical; conditions: room temperature 2 h, 10 concentration gradients
T16 construct: purchased Reaction Biology Corporation (commissioned test)
Method: as §15

EGFR (L861Q) = target: T17, EGFR (L861Q) (Homo sapiens, UniProt P00533, L861Q); assay: as above; assay type: biochemical; conditions: room temperature 2 h, 10 concentration gradients
T17 construct: purchased Reaction Biology Corporation (commissioned test)
Method: as §15

Structure (SMILES) | pIC50 (EGFR (A763_Y764insFHEA)) | pIC50 (EGFR (A763_Y764insFQEA)) | pIC50 (EGFR (D770_N771insNPG)) | pIC50 [1] | pIC50 (EGFR (G719C)) | pIC50 (EGFR (G719S)) | pIC50 (ERBB2 (D769Y)) | pIC50 (ERBB2 (V777_G778insCG)) | pIC50 (ERBB2 (V777L)) | pIC50 (EGFR (D761Y)) | pIC50 (EGFR (D770GY)) | pIC50 (EGFR (G719D)) | pIC50 (EGFR (L861Q)) | other results
C=CC(=O)Nc1cccc(-n2c(=O)c(-c3ccccc3)nc3cnc(Nc4ccc(N5CCN(C)CC5)cc4OC)nc32)c1 [Compound 1] | 9.40 | 9.54 | 9.64 | 9.31 | 9.29 | 9.44 | 9.46 | 9.66 | 9.51 |  |  |  |  | pIC50 (EGFR): 10.10; pIC50 (EGFR (d746-750)): 9.08; pIC50 (EGFR (d747-749/A750P)): 9.54; pIC50 (EGFR (L858R)): 9.77; GI50 [2]: 0.99 nM; GI50 [3]: 5.59 nM; GI50 (EGFR G719A BaF3): 0.58 nM; GI50 (EGFR H773_V774insH BaF3): 5.42 nM; GI50 (EGFR L861Q BaF3): 0.98 nM; GI50 [4]: 1.63 nM
C=CC(=O)N1CCC(Oc2cc3c(Nc4ccc(Cl)c(Cl)c4F)ncnc3cc2OC)CC1 [Poziotinib] |  |  |  |  |  |  | 9.68 | 10.05 | 9.68 |  |  |  |  | 
C=CC(=O)Nc1cc(Nc2ncc(C(=O)OC(C)C)c(-c3cn(C)c4ccccc34)n2)c(OC)cc1N(C)CCN(C)C [TAK788, Mobocertinib] |  |  |  |  |  |  |  |  |  |  |  |  |  | GI50 [2]: 1.53 nM; GI50 [3]: 4.73 nM; GI50 (EGFR G719A BaF3): 4.66 nM; GI50 (EGFR H773_V774insH BaF3): 4.44 nM; GI50 (EGFR L861Q BaF3): 2.55 nM; GI50 [4]: 1.49 nM
C=CC(=O)Nc1cccc(-n2c(=O)c(-c3ccccc3)nc3cnc(Nc4ccc(N(C)CCN(C)C)cc4OC)nc32)c1 [compound A] | 9.17 | 9.46 | 9.28 | 9.17 | 8.96 | 8.84 | 9.10 | 9.46 | 9.11 | 9.47 | 9.55 | 8.66 | 8.69 | 
C=CC(=O)Nc1cccc(-n2c(=O)c(-c3ccccc3)nc3cnc(Nc4ccc(N5CCN(C)CC5)c(OC)c4)nc32)c1 [compound B] | 8.81 | 9.11 | 8.91 | 8.72 | 8.98 | 9.01 | 9.11 | 8.81 | 8.69 | 9.11 | 9.12 | 9.09 | 8.78 | 
C=CC(=O)Nc1cccc(-n2c(=O)c(C3CCCCC3)nc3cnc(Nc4ccc(N5CCN(C)CC5)cc4OC)nc32)c1 [compound C] | 9.03 | 9.35 | 8.44 | 8.61 | 8.75 | 8.56 | 8.34 | 8.56 | 8.79 | 9.00 | 9.01 | 8.42 | 9.03 | 
C=CC(=O)Nc1cccc(-n2c(=O)c(-c3ccc(F)cc3)nc3cnc(Nc4ccc(N5CCN(C)CC5)cc4OC)nc32)c1 [compound D] | 9.24 | 8.72 | 8.56 | 9.00 | 8.62 | 8.52 | 9.11 | 8.71 | 8.73 | 9.35 | 9.06 | 8.54 | 8.98 | 
C=CC(=O)Nc1cccc(-n2c(=O)c(-c3ccc(OC)cc3)nc3cnc(Nc4ccc(N5CCN(C)CC5)cc4OC)nc32)c1 [compound E] | 9.11 | 8.63 | 8.76 | 8.80 | 8.79 | 8.78 | 8.59 | 8.42 | 9.09 | 9.21 | 9.00 | 8.79 | 9.06 | 
